Results on one molecule are retold here after patent US5594009A, “Fused pyrrolocarbazoles” (priority 1995, dated 1997).

Assay [1] concerns choline acetyltransferase (ChAT) activity in dissociated rat embryonic spinal cord culture. Nature of the assay: Spinal Cord ChAT Activity Assay. The format is cell-based. Conditions: ChAT measured after 48 hours.
For another assay, the target named is protein kinase C. In words: PKC Activity Inhibition Assay. The format is biochemical. How it is done:
Fused pyrrolocarbazoles inhibited the activity of protein kinase C (Table VI). The protein kinase C assay has been disclosed (Murakata et al., U.S. Pat. No. 4,923,986; Kikkawa et al., J. Biol. Chem. 257:13341-13348 (1982)). The assay was performed with several concentrations of fused pyrrolocarbazoles. The concentration at which protein kinase C was 50% inhibited (IC50) was determined.

For the next assay, the system named is AT-2 cells. In words: Inhibition of Growth of Prostate Cancer Cell Line (MTS assay). The format is cell-based. The following applies: 72 h; 3 days, MTS; read-out: AT-2 cell growth IC50. How it is done: AT-2 cells are a prostate cancer cell sub-line derived from the Dunning H tumor, graciously provided to us by Dr. John Isaacs (John Hopkins, M. D.). Unlike the Dunning H tumor cells, AT-2 cells can be grown in vitro.
Methods: At-2 cells ([…]) were plated on tissue culture plastic in 96-well plates in the presence of RPMI-1640 medium containing 10% fetal calf serum, 250 nM dexamethasone, 2 mM glutamine, 1 mM sodium pyruvate, and penicillin/streptomycin antibiotics. The next day, compounds were added at 4 concentrations (10, 1, 0.1, 0.01 μM) to determine the approximate IC50 range. Cultures were assayed 3 days later for cell number using the MTS [(3-(4,5-dimethylthiazol-2-yl)-5-(3-carboxymethoxyphenyl)-2-(4-sulfophenyl)-2H-tetrazolium, inner salt)] assay. The MTS assay (purchased as a kit from Promega) measures the formation of an aqueous soluble formazan (detected by a plate reader at 490nm) produced by the bioreduction of a tetrazolium compound (MTS) in metabolically active cells via mitochondrial succinate dehydrogenase. After determining linearity of the substrate incubation time over a range of cell plating densities, the amount of product measured is directly proportional to cell number. MTS (333 ug/ml) and 25 μM phenazine methosulfate are mixed and added directly to the culture medium, and incubated at 37° C. in the 5% CO2 /95% air incubator for 0.5-4 h. Absorbance of the product at 490 nm is read on the BIO-TEK plate reader. Background values were obtained from wells containing culture medium with substrate solution, but no cells. In addition, values were also obtained from wells containing cells plated at day 0 and assayed on the day compound was added (day 1) in order to determine the number of cells at the time compound was added. After the initial dose-finding experiment was completed, subsequent experiments were set up so that there were 3 or more concentrations near the predicted IC50.

Assay [2] deals with chick dorsal root ganglion neurons. In words: DRG Neurite Outgrowth Assay. The format is cell-based. Conditions: compound concentration 200 nM; 48 hours. How it is done: Fused pyrrolocarbazoles promoted nerve fiber (i.e., neurite) outgrowth in explant (i.e., primary) cultures of chick dorsal root ganglion neurons. Dorsal root ganglion (i.e., DRG) nerve fiber outgrowth was increased when a fused pyrrolocarbazole was added to cultures at a concentration of 200 nM (Table IV). Control cultures consisted of: 1) no added NGF or fused pyrrolocarbazole ("Control"), or 2) 50 ng/ml NGF, a neurotrophin known to promote neurite extension in DRG cultures ("NGF").
Methods: Dorsal root ganglia were dissected from chick embryos (embryonic day 9) and individual ganglia were plated on poly-1-ornithine and laminin coated plates. A fused pyrrolocarbazole or 50ng/ml NGF was each added to independent cultures after allowing a 1-2 hour cell attachment period. Explants were cultured for 48 hours in serum-free N2 medium supplemented with 0.05% BSA (Bottenstein et al., PNAS USA 76:514-517 (1979)). Cultures were maintained at 37° C. in a humidified atmosphere, 5% CO2 /95% air. Nerve fiber outgrowth was assessed by the density and length of neurites. It should be apparent to those skilled in the art that neurite extension assays are semi-quantitative and involve a visual comparison between control and experimental neuronal cell cultures (Alberts et al., Molecular Biology of the Cell, 2ed. Garland Publishing, Inc., New York (1989).

As to `O=C1NCc2c1c1c(c3[nH]c4ccccc4c23)Cc2ccccc2-1` [Compound I-2], the “Spinal Cord ChAT Activity, % of Control, untreated cultures” value in assay [1] was 160 % of Control. Besides, the IC50 against protein kinase C came out at 0.11 µM; in the assay with AT-2 cells it was 4.6 µM. Further, in assay [2], the “DRG Neurite Outgrowth” value was “modest to dense outgrowth of neurites”.
